This note sets out measurements from patent US9029559B2, “Substituted 3-heteroaroylamino-propionic acid derivatives and their use as pharmaceuticals” (SANOFI, priority 2011, dated 2015).

Each structure is given as a SMILES string. Where two headings read alike, the source gives them in different places. Where only a bound is given, the exact number is not on record here.

The target in this experiment is Recombinant human cathepsin A (Homo sapiens (Human), UniProt P10619). Description: Cathepsin A inhibitory activity (cleavage of Bodipy FL-labeled bradykinin, microfluidic capillary electrophoresis). In kind it is biochemical.
Sequence of Recombinant human cathepsin A (P10619 29-326): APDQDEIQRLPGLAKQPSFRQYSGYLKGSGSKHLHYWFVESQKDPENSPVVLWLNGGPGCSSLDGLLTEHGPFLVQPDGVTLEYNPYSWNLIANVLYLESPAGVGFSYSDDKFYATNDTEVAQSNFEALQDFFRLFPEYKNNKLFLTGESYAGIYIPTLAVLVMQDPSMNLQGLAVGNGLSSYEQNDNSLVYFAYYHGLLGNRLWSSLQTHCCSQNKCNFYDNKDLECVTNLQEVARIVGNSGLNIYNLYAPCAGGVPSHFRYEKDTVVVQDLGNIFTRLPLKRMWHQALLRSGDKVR
Sequence of Recombinant human cathepsin A (P10619 327-480): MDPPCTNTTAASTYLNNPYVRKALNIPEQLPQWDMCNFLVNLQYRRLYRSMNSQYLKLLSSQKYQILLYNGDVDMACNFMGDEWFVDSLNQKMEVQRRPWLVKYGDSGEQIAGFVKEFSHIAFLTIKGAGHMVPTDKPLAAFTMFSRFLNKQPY
Where [1] appears, read: read-out: Activity (IC50, cathepsin A inhibitory activity).
[2] abbreviates: read-out: Activity [μM] (IC50, cathepsin A inhibitory activity).
Where [3] appears, read: read-out: Activity (IC50, cathepsin A inhibition).

Procedure: Pharmacological Tests a) Cathepsin A Inhibitory Activity
Briefly, cathepsin A was incubated at 10 μg/ml with cathepsin L at 1 μg/ml in activation buffer (25 mM 2-(morpholin-4-yl)-ethanesulfonic acid (MES), pH 6.0, containing 5 mM dithiothreitol (DTT)) for 15 min at 37° C.
The activated cathepsin A was diluted in assay buffer (25 mM MES, pH 5.5, containing 5 mM DTT) and mixed with the test compound (dissolved in assay buffer containing (v/v) 3% DMSO) or, in the control experiments, with the vehicle in a multiple assay plate. After incubation for 15 min at room temperature, as substrate then bradykinin carrying an N-terminal ®Bodipy FL (4,4-difluoro-5,7-dimethyl-4-bora-3a,4a-diaza-s-indacene-3-propionyl) label (JPT Peptide Technologies GmbH; dissolved in assay buffer) was added to the mixture. […] After incubation for 15 min at room temperature the reaction was stopped by the addition of stop buffer (130 mM 2-(4-(2-hydroxy-ethyl)-piperazin-1-yl)-ethanesulfonic acid, pH 7.4, containing (v/v) 0.013% ®Triton X-100, 0.13% Coating Reagent 3 (Caliper Life Sciences), 6.5% DMSO and 20 μM ebelactone B (Sigma, #E0886)).
Uncleaved substrate and product were then separated by a microfluidic capillary electrophoresis on a LabChip® 3000 Drug Discovery System (12-Sipper-Chip; Caliper Life Sciences) and quantified by determination of the respective peak areas. Substrate turnover was calculated by dividing product peak area by the sum of substrate and product peak areas, and the enzyme activity and the inhibitory effect of the test compound thus quantified.

On to `COc1ccc(C(=O)N[C@@H](CC(=O)O)c2ccccc2F)nc1-c1cc(C(F)(F)F)ccc1F` [compound 304], for which the IC50 under setting [1] stood at 3.99 µM.

With `Cc1ccccc1[C@H](CC(=O)O)NC(=O)c1cccc(-c2ccc(F)cc2F)n1` [compound 149], the concentration for half-maximal inhibition (IC50) under setting [2] was determined as 4.4 µM.

As to `COc1ccc(C(=O)N[C@@H](CC(=O)O)c2ccccc2C)nc1-c1cccnc1` [compound 578], the 50% inhibitory concentration (IC50) under setting [3] is 7.54 µM.

As to `CC(C)Cc1cc(C(=O)NC(CC(=O)O)c2ccccc2Cl)nc(N)n1` (stereo not shown) [compound 557], the IC50 under setting [3] came out at 14 µM.

With `COc1ccccc1-c1cncc(C(=O)N[C@@H](CC(=O)O)c2ccccc2C)c1` [compound 67], the IC50 under setting [1] amounted to 4.97 µM.

As to `COc1cccc(-c2nc(C(=O)N[C@@H](CC(=O)O)c3ccc(C)cc3)ccc2OC)c1` [compound 191], under setting [2], the IC50 amounted to 4.57 µM.

Take `COc1ccc(C(=O)N[C@@H](CC(=O)O)c2ccc(C)cc2)nc1-c1cc(C(F)(F)F)ccc1F` [compound 236]: under setting [1], the IC50 amounted to 3.57 µM.

Consider `CCc1ccnc(C(=O)N[C@@H](CC(=O)O)c2ccccc2C)c1` [compound 18], for which the IC50 under setting [1] came out at 3.06 µM.

For the compound `O=C(O)CC(NC(=O)c1cccc(-c2ccccc2)n1)c1ccccc1Cl` (stereo not shown) [compound 563], the IC50 under setting [3] turned out to be 3.09 µM.

Take `COc1cccc(-c2cc(C(=O)N[C@@H](CC(=O)O)c3ccccc3Cl)cnc2OC)c1` [compound 391]: the IC50 under setting [2] was 10.6 µM.

In the case of `COc1ccc(C(=O)N[C@@H](CC(=O)O)c2ccccc2F)nc1-c1ccc(C#N)s1` [compound 283], the IC50 under setting [1] turned out to be 5.4 µM.

`COc1ccc(C(=O)N[C@@H](CC(=O)O)c2ccccc2C)nc1-c1ccc(C#N)cc1` [compound 465]: the IC50 under setting [1] amounted to 6.8 µM.

Regarding `COc1ccc(C(=O)N[C@@H](CC(=O)O)c2ccccc2C)nc1-c1cccc(F)c1Cl` [compound 383], under setting [2], the IC50 is 1.64 µM.

As for `COc1ccc(C(=O)N[C@@H](CC(=O)O)c2ccccc2F)nc1-c1cccc(C(C)=O)c1` [compound 275], the IC50 under setting [1] turned out to be 8.54 µM.

On to `COc1ccc([C@H](CC(=O)O)NC(=O)c2cccc(-c3ccccc3Cl)n2)cc1` [compound 599], for which the IC50 (read-out: Activity (Cathepsin A inhibitory activity, IC50)) came to 2.83 µM.

As for `COc1ccc(C(=O)N[C@@H](CC(=O)O)c2ccccc2C)nc1-c1ccc(F)nc1` [compound 373], the IC50 under setting [2] was 1.6 µM.

On to `COc1ccccc1-c1cccc(C(=O)N[C@@H](CC(=O)O)c2ccccc2C)n1` [compound 44], for which, under setting [1], the IC50 was 1.19 µM.

In the case of `COc1ccc(C(=O)N[C@@H](CC(=O)O)c2ccccc2F)nc1-c1ccc(F)cc1` [compound 257], under setting [1], the IC50 is 1.26 µM.

Take `COc1ccc(C(=O)N[C@@H](CC(=O)O)c2ccc(C)cc2)nc1-c1ccncc1` [compound 215]: the IC50 under setting [1] worked out at 9.66 µM.

As to `COc1ccc(-c2cc(C(=O)N[C@@H](CC(=O)O)c3ccccc3C)cnc2OC)cc1` [compound 409], under setting [1], the IC50 was 9.04 µM.

As for `COc1ccc(C(=O)N[C@@H](CC(=O)O)c2ccccc2Cl)nc1-c1cccc(Cl)c1` [compound 340], under setting [2], the IC50 is 1.51 µM.

For the compound `Cc1ccccc1[C@H](CC(=O)O)NC(=O)c1cncc(-c2ccccc2F)c1` [compound 69], the IC50 under setting [1] was 1.4 µM.

`Cc1ccccc1[C@H](CC(=O)O)NC(=O)c1ncccc1F` [compound 33]: the IC50 under setting [1] is 3.42 µM.

For the compound `O=C(O)CC(NC(=O)c1cnccn1)c1ccccc1Cl` (stereo not shown) [compound 521], the IC50 under setting [3] was determined as 12.8 µM.

As to `COc1ccc(C(=O)N[C@@H](CC(=O)O)c2ccccc2C)nc1-c1cccc(C2(O)COC2)c1` [compound 384], the IC50 under setting [2] is 2.39 µM.

`COc1ccc(C(=O)NC(CC(=O)O)c2ccccc2Cl)nc1Cl` (stereo not shown) [compound 550]: the IC50 under setting [3] came out at 1.08 µM.

Regarding `COc1ccc(C(=O)N[C@@H](CC(=O)O)c2ccccc2F)nc1-c1cccc(F)c1Cl` [compound 324], the IC50 under setting [2] turned out to be 1.27 µM.

`O=C(O)C[C@H](NC(=O)c1cccc(-c2ccccc2Cl)n1)c1ccccc1` [compound 567]: under setting [3], the IC50 was found to be 2.18 µM.

`COc1ccc(-c2cccc(C(=O)NC(CC(=O)O)c3ccccc3Cl)n2)cc1` (stereo not shown) [compound 595]: the IC50 under setting [3] worked out at 1.42 µM.

Turning to `COc1ccc(C(=O)N[C@@H](CC(=O)O)c2ccccc2F)nc1-c1cc(C)ccc1Cl` [compound 323], the concentration for half-maximal inhibition (IC50) under setting [2] is 2.31 µM.

Take `Cc1ccccc1[C@H](CC(=O)O)NC(=O)c1cccc(-c2ccc(F)cc2)n1` [compound 135]: the IC50 under setting [2] turned out to be 1.18 µM.

As to `COc1ccc(C(=O)N[C@@H](CC(=O)O)c2ccccc2Cl)nc1-c1ccc(Cl)c(F)c1` [compound 480], the IC50 under setting [1] was found to be 4.37 µM.

In the case of `COc1cc(C(=O)NC(CC(=O)O)c2ccccc2Cl)ccn1` (stereo not shown) [compound 536], the IC50 under setting [3] stood at 5.08 µM.

`COc1ccc(C(=O)N[C@@H](CC(=O)O)c2ccc(C)cc2)nc1-c1ccc(Cl)cc1Cl` [compound 183]: under setting [2], the IC50 stood at 1.01 µM.

On to `COc1ccc(C(=O)N[C@@H](CC(=O)O)c2ccccc2Cl)nc1-c1c(C)nn(C)c1C` [compound 486], for which the IC50 under setting [1] was 4.95 µM.

`COc1ccc(C(=O)N[C@@H](CC(=O)O)c2ccccc2F)nc1-c1ccc(C)c(F)c1` [compound 290]: under setting [1], the IC50 was determined as 3.81 µM.

`Cc1ccccc1[C@H](CC(=O)O)NC(=O)c1cccc(-c2ccc3c(c2)OCO3)n1` [compound 152]: the IC50 under setting [2] came to 1.55 µM.

Regarding `COc1ccc(C(=O)N[C@@H](CC(=O)O)c2ccccc2C)nc1-c1cccc(C(C)(C)O)c1` [compound 385], the concentration for half-maximal inhibition (IC50) under setting [2] was determined as 1.15 µM.

Turning to `COc1ccc(C(=O)N[C@@H](CC(=O)O)c2ccccc2F)nc1-c1cc(F)cc(F)c1` [compound 279], the IC50 under setting [1] is 3.85 µM.

Turning to `Cc1ccccc1[C@H](CC(=O)O)NC(=O)c1cccc(-c2cccc(OCC3CC3)c2)n1` [compound 171], under setting [2], the IC50 stood at 6.98 µM.

With `COc1cc(OC)nc(C(=O)N[C@@H](CC(=O)O)c2ccccc2C)n1` [compound 30], the IC50 under setting [1] was determined as 4.21 µM.

For `COc1ccc(C(=O)N[C@@H](CC(=O)O)c2ccccc2Cl)nc1-c1cccc(-c2ccccc2)c1` [compound 436], the IC50 under setting [1] is 2.97 µM.

On to `COc1ccc(C(=O)N[C@@H](CC(=O)O)c2ccc(C)cc2)nc1-c1cccc(C(C)=O)c1` [compound 203], for which the IC50 under setting [2] stood at 8.35 µM.

For the compound `COc1ccc(C(=O)N[C@@H](CC(=O)O)c2ccccc2F)nc1-c1ccnc(N2CCOCC2)c1` [compound 321], the concentration for half-maximal inhibition (IC50) under setting [2] was more than 10 µM.

With `COc1ccc(C(=O)N[C@@H](CC(=O)O)c2ccccc2Cl)nc1-c1ccncc1` [compound 443], the IC50 under setting [1] was found to be 8.04 µM.

Regarding `Cc1ccc(-c2cccc(C(=O)N[C@@H](CC(=O)O)c3ccccc3C)n2)cc1C` [compound 153], the IC50 under setting [2] was found to be 1.19 µM.

Consider `COc1ccc(C(=O)N[C@@H](CC(=O)O)c2ccccc2F)nc1-c1cccc(Cl)c1` [compound 265], for which the IC50 under setting [1] amounted to 1.72 µM.

With `COc1ccc(C(=O)N[C@@H](CC(=O)O)c2ccccc2Cl)nc1-c1cccc(C#N)c1` [compound 433], the IC50 under setting [1] was found to be 8.26 µM.

With `O=C(O)CC(NC(=O)c1cc(-c2ccccc2)ccn1)c1ccccc1Cl` (stereo not shown) [compound 565], the IC50 under setting [3] was 4.07 µM.

Turning to `COc1ncc(C(=O)N[C@@H](CC(=O)O)c2ccccc2Cl)cc1-c1ccc(Cl)cc1` [compound 386], the IC50 under setting [2] is 10.4 µM.

For the compound `COc1ncc(C(=O)N[C@@H](CC(=O)O)c2ccccc2C)cc1-c1ccccc1F` [compound 418], the IC50 under setting [1] was 1.08 µM.

Turning to `COc1ncc(C(=O)N[C@@H](CC(=O)O)c2ccccc2Cl)cc1-c1ccc(F)cc1` [compound 346], under setting [2], the IC50 was 8.26 µM.

As usually defined, the IC50 is the concentration that inhibits the measured activity by half.
